Assay results taken from patent publication US20250270213A1, “PI3Ka INHIBITORS” (Synnovation Therapeutics, Inc., priority 2022, published 2025).

system: T47D (PIK3CA H1047R) cells; assay: pS473 AKT assay with 2.5% FBS, T47D cells; format: cell-based; conditions: Homo sapiens, pSer473 AKT, DMEM with 2.5% FBS, 2 h treatment, read-out: T47D_IC50
How it was run: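 In-cell chemiluminescent ELISA of AKT Ser473 phosphorylation, using anti-pSer473 primary and HRP secondary antibodies on fixed cells. T47D (PIK3CA H1047R) cells had 2 h of compound treatment in DMEM containing 2.5% FBS; IC50 derived from dose-response.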

IC50, < 1000 nM:
Cc1cc(C(C)Nc2ccc(Cl)nc2-c2cnn(C)c2)c2c(c1)c(=O)n(C)c1c2cnn1C1CCN(C[C@@H](C)O)CC1 (stereo partly drawn) [Compound 173, 9-[1-[[6-chloro-2-(1-methylpyrazol-4-yl)-3-pyridyl]amino]ethyl]-3-[1-[(2R)-2-hydroxypropyl]-4-piperidyl]-4,7-dimethyl-pyrazolo[3,4-c]isoquinolin-5-one]
CCn1ncc2c3c(C(C)Nc4ccc(Cl)nc4C(=O)NC4CCN(C)CC4)cc(C)cc3c(=O)n(C)c21 (stereo not shown) [Compound 73, 6-Chloro-3-((1-(3-ethyl-4,7-dimethyl-5-oxo-4,5-dihydro-3H-pyrazolo[3,4-c]isoquinolin-9-yl)ethyl)amino)-N-(1-methylpiperidin-4-yl)picolinamide]
CCn1ncc2c3c(C(C)Nc4ccc(Cl)nc4-c4ncn(C)n4)cc(C)cc3c(=O)n(CC(F)F)c21 (stereo not shown) [Example 236, 9-(1-((6-chloro-2-(1-methyl-1H-1,2,4-triazol-3-yl)pyridin-3-yl)amino)ethyl)-4-(2,2-difluoroethyl)-3-ethyl-7-methyl-3,4-dihydro-5H-pyrazolo[3,4-c]isoquinolin-5-one]
CCn1c(=O)c2cc(Cl)cc(C(C)Nc3ccccc3C(=O)O)c2n2cncc12 (stereo not shown) [Compound I-12, 2-((1-(7-Chloro-4-ethyl-5-oxo-4,5-dihydroimidazo[1,5-a]quinazolin-9-yl)ethyl)amino)benzoic acid]
Cc1cc(C(C)Nc2ccc(Cl)nc2-c2ncn(C)n2)c2c(c1)c(=O)n(C)c1c(-c3cncnc3)ncn21 (stereo not shown) [Compound 114, 9-(1-((6-chloro-2-(1-methyl-1H-1,2,4-triazol-3-yl)pyridin-3-yl)amino)ethyl)-4,7-dimethyl-3-(pyrimidin-5-yl)imidazo[1,5-a]quinazolin-5(4H)-one]
Cc1cc(C(C)Nc2ccc(Cl)nc2-c2cnn(C)c2)c2c(c1)c(=O)n(C)c1c2cnn1CC1CCN(C(=O)N(C)C)CC1 (stereo not shown) [Compound 108, 4-((9-(1-((6-chloro-2-(1-methyl-1H-pyrazol-4-yl)pyridin-3-yl)amino)ethyl)-4,7-dimethyl-5-oxo-4,5-dihydro-3H-pyrazolo[3,4-c]isoquinolin-3-yl)methyl)-N,N-dimethylpiperidine-1-carboxamide]
CCn1ncc2c3c(C(C)Nc4ccc(Cl)nc4-c4ccc(=O)n(C)c4)cc(C)cc3c(=O)n(CC(F)F)c21 (stereo not shown) [Example 239, 9-(1-((6-chloro-1′-methyl-6′-oxo-1′,6′-dihydro-[2,3′-bipyridin]-3-yl)amino)ethyl)-4-(2,2-difluoroethyl)-3-ethyl-7-methyl-3,4-dihydro-5H-pyrazolo[3,4-c]isoquinolin-5-one]
Cc1cc(C(C)Nc2ccc(C)nc2-c2cnn(CCO)c2)c2c(c1)c(=O)n1c3c2cnn3CCC1 (stereo not shown) [Compound 319, 10-(1-((2-(1-(2-hydroxyethyl)-1H-pyrazol-4-yl)-6-methylpyridin-3-yl)amino)ethyl)-8-methyl-4,5-dihydro-3H,6H-2,2a,5a-triazaaceanthrylen-6-one]
[2H]C([2H])([2H])n1c(=O)c2cc(C)cc(C(C)Nc3ccc(Cl)nc3-c3cnn(C)c3)c2c2cnn([C@H]3CCOC3)c21 (stereo partly drawn) [Example 214, 9-(1-((6-chloro-2-(1-methyl-1H-pyrazol-4-yl)pyridin-3-yl)amino)ethyl)-7-methyl-4-(methyl-d3)-3-((S)-tetrahydrofuran-3-yl)-3,4-dihydro-5H-pyrazolo[3,4-c]isoquinolin-5-one]
CCn1ncc2c3c(C(C)Nc4ccccc4N4CCN(C(C)=O)CC4)cc(C)cc3c(=O)n(C)c21 (stereo not shown) [Compound 57, 9-(1-((2-(4-Acetylpiperazin-1-yl)phenyl)amino)ethyl)-3-ethyl-4,7-dimethyl-3,4-dihydro-5H-pyrazolo[3,4-c]isoquinolin-5-one]
CC(=O)N1CCC(c2ncn3c4c(C(C)Nc5ccc(Cl)nc5-c5ncn(C)n5)cc(C)cc4c(=O)n(C)c23)CC1 (stereo not shown) [Compound 132, 3-(1-Acetylpiperidin-4-yl)-9-(1-((6-chloro-2-(1-methyl-1H-1,2,4-triazol-3-yl)pyridin-3-yl)amino)ethyl)-4,7-dimethylimidazo[1,5-a]quinazolin-5(4H)-one]
CCn1ncc2c3c(C(C)Nc4ccc(C)nc4-c4c[nH]nc4C)cc(C)cc3c(=O)n(C)c21 (stereo not shown) [Example 235, 3-ethyl-4,7-dimethyl-9-(1-((6-methyl-2-(3-methyl-1H-pyrazol-4-yl)pyridin-3-yl)amino)ethyl)-3,4-dihydro-5H-pyrazolo[3,4-c]isoquinolin-5-one]
Cc1cc(C(C)Nc2ccc(C)nc2-c2cnn(C)c2)c2c(c1)c(=O)n(C)c1c2cnn1C1CCN(S(C)(=O)=O)CC1 (stereo not shown) [Example 189, 4,7-dimethyl-9-(1-((6-methyl-2-(1-methyl-1H-pyrazol-4-yl)pyridin-3-yl)amino)ethyl)-3-(1-(methylsulfonyl)piperidin-4-yl)-3,4-dihydro-5H-pyrazolo[3,4-c]isoquinolin-5-one]
Cc1cc(C(CO)Nc2ccc(Cl)nc2-c2cnn(C)c2C)c2c(c1)c(=O)n1c3c2cnn3CCC1 (stereo not shown) [Compound 330, 10-(1-((6-chloro-2-(1,5-dimethyl-1H-pyrazol-4-yl)pyridin-3-yl)amino)-2-hydroxyethyl)-8-methyl-4,5-dihydro-3H,6H-2,2a,5a-triazaaceanthrylen-6-one]
CNC(=O)c1ccc(-c2nc(Cl)ccc2NC(C)c2cc(C)cc3c(=O)n(C)c4c(cnn4CCN4CCOCC4)c23)cc1F (stereo not shown) [Example 266, 4-(6-chloro-3-((1-(4,7-dimethyl-3-(2-morpholinoethyl)-5-oxo-4,5-dihydro-3H-pyrazolo[3,4-c]isoquinolin-9-yl)ethyl)amino)pyridin-2-yl)-2-fluoro-N-methylbenzamide]
Cc1cc(C(C)Nc2ccc(Cl)nc2-c2noc(=O)[nH]2)c2c(c1)c(=O)n(C)c1c2cnn1C1CCN(C)CC1 (stereo not shown) [Compound 164, 3-[6-chloro-3-[1-[4,7-dimethyl-3-(1-methyl-4-piperidyl)-5-oxo-pyrazolo[3,4-c]isoquinolin-9-yl]ethylamino]-2-pyridyl]-4H-1,2,4-oxadiazol-5-one]
Cc1cc(C(C)Nc2ccc(C)nc2-c2cnn(C)c2)c2c(c1)c(=O)n(C)c1c2cnn1CCO (stereo not shown) [Example 249, 3-(2-hydroxyethyl)-4,7-dimethyl-9-(1-((6-methyl-2-(1-methyl-1H-pyrazol-4-yl)pyridin-3-yl)amino)ethyl)-3,4-dihydro-5H-pyrazolo[3,4-c]isoquinolin-5-one]
Cc1cc(C(C)Nc2ccc(C)nc2-c2cnn(C3CC3)c2)c2c(c1)c(=O)n1c3c2cnn3CCC1 (stereo not shown) [Compound 321, 10-(1-((2-(1-cyclopropyl-1H-pyrazol-4-yl)-6-methylpyridin-3-yl)amino)ethyl)-8-methyl-4,5-dihydro-3H,6H-2,2a,5a-triazaaceanthrylen-6-one]
Cc1cc(C(C)Nc2ccc(Cl)nc2-c2ccc(=O)n(C)c2)c2c(c1)c(=O)n(C)c1c2cnn1C1CN(C)C1 (stereo not shown) [Compound 85, 9-(1-((6-chloro-1′-methyl-6′-oxo-1′,6′-dihydro-[2,3′-bipyridin]-3-yl)amino)ethyl)-4,7-dimethyl-3-(1-methylazetidin-3-yl)-3,4-dihydro-5H-pyrazolo[3,4-c]isoquinolin-5-one]
